Assays:
Type in all cases: cell-based, human
[1] = test system: microtubule‐associated protein light chain 3B (LC3B); test: Western blot analysis of LC3B, LN229; settings: LN229, IC50 dose
Method: mouse microglial cell line BV‐2 was a kind gift from Dr. Irena Lavrnja, Institute for Biological Research “Siniša Stanković” (University of Belgrade). Cells were routinely cultivated in HEPES‐buffered RPMI‐ […]
FCS, 2 mM L‐glutamine, 0.01% sodium pyruvate and antibiotics, at 37 °C in a humidified atmosphere with 5% CO2. Peritoneal resident macrophages (Mph) were collected from C57BL/6 mice, obtained from the animal facility at the Institute for Biological Research “Siniša Stanković” (University of Belgrade), via peritoneal lavage with ice‐cold PBS. Cells were counted and seeded in 96‐well plates and incubated overnight, as described above. Before treatment, non‐adherent cells were removed.
Isolation of cells from animals were performed in accordance to local guidelines and approved by the local Institutional Animal Care and Use Committee (IACUC).
Staining Protocols for Flow Cytometric Analysis. For AnnV/PI, AO and ApoStat staining, cells were treated with an IC50 dose of 3 or 4 for 72 h, then detached with trypsin and washed with PBS. […] Finally, cells were washed in PBS, resuspended in PBS (or AnnV‐binding buffer for AnnV/PI), and analysed. […] Cells were then washed, trypsinised, dissolved in PBS and analysed by CyFlow® Space Partec using the PartecFloMax® software (Partec GmbH, Münster, Germany).
Staining Protocols for Fluorescence Microscopy. […]

[2] = test system: LN229 cells; test: AnnV/PI double staining, flow cytometry, LN229; settings: LN229, 40 μM, 72 h
Method: (§1) Flow cytometry. For gaining better insights into the mechanisms of action of the ruthenium complexes, MCF‐7 and LN229 cells incubated with an IC50 dose of 3 or 4, were analyzed via flow cytometry. Several staining protocols were carried out in parallel, in independent experiments: i) AnnV/PI for the detection of apoptotic cell death, ii) AO for the detection of acidic vacuoles, iii) ApoStat for checking caspase activation, iv) CFSE for detecting interference with cellular proliferation, and v) DAPI for the detection of morphological signs of apoptosis. Untreated cells or cells treated only with BSA (control) were also measured, as reference for BSA‐free and BSA‐containing drug formulations, respectively. […] Channels FL1 (green emission), FL2 (orange emission) and/or FL3 (dark red emission) were used for fluorescence detection, according to the specific staining agent. Sideward Scatter (SSC) for MCF‐7 cells treated with 4 or BSA−4 was also analyzed, with respect to the control, for detection of shifts of cell granularity. […]
(§2) FCS, 2 mM L‐glutamine, 0.01% sodium pyruvate and antibiotics, at 37 °C in a humidified atmosphere with 5% CO2. […] Cells were counted and seeded in 96‐well plates and incubated overnight, as described above. […]
(§3) Staining Protocols for Flow Cytometric Analysis. […] Finally, cells were washed in PBS, resuspended in PBS (or AnnV‐binding buffer for AnnV/PI), and analysed. […]

[3] = test system: LN229 cells; test: DAPI staining, fluorescence microscopy, LN229; settings: LN229, 40 μM, 72 h
Method: as §1, §2, §3

[4] = test system: LN229 cells; test: CFSE staining, flow cytometry, LN229; settings: LN229, 40 μM, 72 h
Method: as §1
Staining Protocols for Flow Cytometric Analysis. […] Finally, cells were washed in PBS, resuspended in PBS (or AnnV‐binding buffer for AnnV/PI), and analysed. […] Cells were then washed, trypsinised, dissolved in PBS and analysed by CyFlow® Space Partec using the PartecFloMax® software (Partec GmbH, Münster, Germany). […]

How did the “expression of LC3B (western blot)” value [1] turn out when “closo ‐[3‐(η^6‐p‐Cymene)‐1‐(quinolin‐8‐yl‐acetate)‐3,1,2‐RuC2B9H10] [Compound 4]” was run?
Its value is “significantly diminished”.

What about the “early apoptotic (Ann+/PI−) cells” value ([2]; control 0.9 %) of the same substance?
Its value is 9.0%.

And the “late apoptotic (Ann+/PI+) cells” value ([2]; control 7.4 %)?
The value was 35%.

And the “morphological features of apoptosis (DAPI)” value [3]?
The value was “several typical morphological features of apoptosis”.

And the “cellular proliferation (CFSE staining)” value [4]?
The value was “strong inhibition of cellular proliferation”.

From PMC6973020, “Quinoline‐Conjugated Ruthenacarboranes: Toward Hybrid Drugs with a Dual Mode of Action” (Chemmedchem, 2019)
